According to ChEMBL document CHEMBL5291721, “A preclinical secondary pharmacology resource illuminates target-adverse drug reaction associations of marketed drugs” (Nat Commun, 2023):

molecular target: T1, Muscarinic acetylcholine receptor M1 (Homo sapiens, UniProt P11229); assay type: functional, cell-based
T1 sequence (P11229 whole entry): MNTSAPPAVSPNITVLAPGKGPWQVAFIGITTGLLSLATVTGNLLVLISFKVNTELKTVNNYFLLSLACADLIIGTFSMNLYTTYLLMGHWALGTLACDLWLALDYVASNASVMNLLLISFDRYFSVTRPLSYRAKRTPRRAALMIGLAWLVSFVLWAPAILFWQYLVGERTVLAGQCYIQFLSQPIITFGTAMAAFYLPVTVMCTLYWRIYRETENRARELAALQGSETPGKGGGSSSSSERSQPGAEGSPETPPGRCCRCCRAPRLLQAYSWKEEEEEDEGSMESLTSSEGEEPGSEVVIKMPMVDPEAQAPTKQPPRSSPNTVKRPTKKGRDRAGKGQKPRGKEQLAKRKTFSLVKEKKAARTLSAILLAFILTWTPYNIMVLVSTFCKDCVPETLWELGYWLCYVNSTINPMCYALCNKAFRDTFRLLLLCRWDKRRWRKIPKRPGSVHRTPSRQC
Further: assay procedure not described here.

| SMILES | AC50 |
| --- | --- |
| O=C(c1ccc(F)c(F)c1Nc1ccc(I)cc1F)N1CC(O)([C@@H]2CCCCN2)C1 [COBIMETINIB] | 17.4 µM |
| NS(=O)(=O)c1cc2c(cc1Cl)NC(C1CC3C=CC1C3)NS2(=O)=O (stereo unspecified) [CYCLOTHIAZIDE] | > 30 µM |
| Nc1nc(-n2cc(C(=O)O)c(=O)c3cc(F)c(N4CC(O)C4)c(Cl)c32)c(F)cc1F [DELAFLOXACIN] | > 30 µM |
| COc1ccc(-c2cc(=O)c3c(O)cc(O[C@@H]4O[C@H](CO[C@@H]5O[C@@H](C)[C@H](O)[C@@H](O)[C@H]5O)[C@@H](O)[C@H](O)[C@H]4O)cc3o2)cc1O [DIOSMIN] | > 30 µM |
| CCOc1ccc(/C=C2\NCCc3cc(OCC)c(OCC)cc32)cc1OCC [DROTAVERINE] | > 30 µM |
| CCOC(=O)C(c1c(O)c2ccccc2oc1=O)c1c(O)c2ccccc2oc1=O [ETHYL BISCOUMACETATE] | > 30 µM |
| Cc1nc(-c2ccc(OCC(C)C)c(C#N)c2)sc1C(=O)O [FEBUXOSTAT] | > 30 µM |
| O=C1NCC2(CCN(CCc3ccccc3)CC2)O1 [FENSPIRIDE] | > 30 µM |
| C[C@@H]1C[C@H]2[C@@H]3C[C@H](F)C4=CC(=O)C=C[C@]4(C)[C@@]3(F)[C@@H](O)C[C@]2(C)[C@@]1(O)C(=O)COC(=O)C(C)(C)C [FLUMETHASONE PIVALATE] | > 30 µM |
| C[C@@H]1C[C@H]2[C@@H]3C[C@H](F)C4=CC(=O)C(Cl)=C[C@]4(C)[C@@]3(F)[C@@H](O)C[C@]2(C)[C@@]1(O)C(=O)CO [HALOMETASONE] | > 30 µM |
| CC(C)Cc1ccc(C(C)C(=O)NO)cc1 (stereo unspecified) [IBUPROXAM] | > 30 µM |
| CC/C=C\C/C=C\C/C=C\C/C=C\C/C=C\CCCC(=O)O [ICOSAPENT] | > 30 µM |
| CCC(Cc1c(I)cc(I)c(N)c1I)C(=O)O (stereo unspecified) [IOPANOIC ACID] | > 30 µM |
| O=C(NC1CCN(CCCCC2(C(=O)NCC(F)(F)F)c3ccccc3-c3ccccc32)CC1)c1ccccc1-c1ccc(C(F)(F)F)cc1 [LOMITAPIDE] | > 30 µM |
| CCN(CC)CCNc1ccc(C)c2sc3ccccc3c(=O)c12 [LUCANTHONE] | > 30 µM |
| CCOC(=O)CC(SP(=S)(OC)OC)C(=O)OCC (stereo unspecified) [MALATHION] | > 30 µM |

| SMILES | AC50 |
| --- | --- |
| CCC1(c2cccc(O)c2)CCCCN(C)C1 (stereo unspecified) [MEPTAZINOL] | > 30 µM |
| CC(=O)OC(C)C[N+](C)(C)C (stereo unspecified) [METHACHOLINE] | 0.0079 µM |
| C1N2CN3CN1CN(C2)C3 [METHENAMINE] | > 30 µM |
| O=[N+]([O-])c1cncn1CCN1CCOCC1 [NIMORAZOLE] | > 30 µM |
| NC(=O)c1cccc2cn(-c3ccc([C@@H]4CCCNC4)cc3)nc12 [NIRAPARIB] | > 30 µM |
| COc1ccc2c(c1)OC(C)(C)C(c1ccccc1)C2c1ccc(OCCN2CCCC2)cc1 (stereo unspecified) [ORMELOXIFENE] | 10.5 µM |
| CC[C@@H]1/C=C(\C)C[C@H](C)C[C@H](OC)[C@H]2O[C@@](O)(C(=O)C(=O)N3CCCC[C@H]3C(=O)O[C@H](/C(C)=C/[C@@H]3CC[C@H](Cl)[C@H](OC)C3)[C@H](C)[C@@H](O)CC1=O)[C@H](C)C[C@@H]2OC [PIMECROLIMUS] | > 30 µM |
| CC(C(=O)O)c1ccc2c(c1)Cc1cccnc1O2 (stereo unspecified) [PRANOPROFEN] | > 30 µM |
| CCO[C@@H](Cc1ccc(OCCn2c(C)ccc2-c2ccc(SC)cc2)cc1)C(=O)O [SAROGLITAZAR] | 18.7 µM |
| CN1CCC2=C(C1)c1ccccc1Cc1ccccc12 [SETIPTILINE] | > 30 µM |
| COc1ccc(CCC(C)NCC(O)c2ccc(O)c([S+](C)[O-])c2)cc1 (stereo unspecified) [SULFINALOL] | > 30 µM |
| CCC1C(C)=NN=C(c2ccc(OC)c(OC)c2)c2cc(OC)c(OC)cc21 (stereo unspecified) [TOFISOPAM] | > 30 µM |
| COc1cc(NCc2ccc3nc(N)nc(N)c3c2C)cc(OC)c1OC [TRIMETREXATE] | > 30 µM |
| C[C@@H]1O[C@@H](OC[C@H]2O[C@@H](Oc3c(-c4ccc(OCCO)c(OCCO)c4)oc4cc(OCCO)cc(O)c4c3=O)[C@H](O)[C@@H](O)[C@@H]2O)[C@H](O)[C@H](O)[C@H]1O [TROXERUTIN] | > 30 µM |
| COc1cc2c(cc1OC)[C@H]1C[C@@H](OC(=O)[C@@H](N)C(C)C)[C@H](CC(C)C)CN1CC2 [VALBENAZINE] | > 30 µM |
